Patent US5696276A, “Process for preparing 5,8-dihydroxynaphthoquinone derivatives, novel 5,8-dihydroxynaphthoquinone derivatives and their use as anticancer agent” (Kuhnil Pharmaceutical Co., Ltd., priority 1993, dated 1997)
Values after ≈ are worked out from the molar mass of the structure shown.

How the values were obtained:
Format in all cases: cell-based
L1210 cells = assay: Cytotoxic activity against L1210 cells; conditions: Mus musculus; L1210 cells, 48 hours, 37° C.; read-out: ED50, cytotoxic activity against L1210
Protocol: To obtain L1210 cells in a logarithmic phase for cytotoxic activity test, in a 250 ml Erlenmeyer flask with a screw cap including Fisher medium warmed to 36° to 37° C. L1210 cells were adjusted to a concentration of 2-3×10^5 cells/ml and then cultured, before 24 hours from the beginning of experiment. Then, the culture solution thus obtained was suspended to prepare a L1210 cell suspension having a concentration of about 0.8-1.0×10^6 cells/ml. Test sample was dissoved in ethanol or dimethylsulfoxide in a certain concentration just before the experiment. 0.1 ml of the sample solution was diluted 10 times with 0.9 ml of a fresh medium. To each screw-capped test tube were added 100, 50, 25 μl, respectively, of the sample dilutions and then added 5 ml of the cell suspension (5×10^4 cells/ml) prepared above to use as the test group. To the test tubes for the control group (2√n: n=number of the samples), only 5 ml of the cell suspension was added. All test tubes were cultured for 48 hours in a CO2 incubator at 37° C. and then the number of cells was counted using a haemacytometer.
(§1) The ED50 value is defined as a concentration (μg/ml) of the sample which inhibits the growth of cancer cells by 50% of the control group and determined according to a method described in NIC's mannual (NIC=National Cancer Institue, U.S.A.). The growth rate Y(%) of cells in the presence of the test sample in each concentration was calculated according to the followign equation: […]
(§2) In the above equation, T means the average cell number per ml in the test group after incubation for 48 hours in the presence of the test samples in each concentration, C means the average cell number per ml in the control group after incubation for 48 hours, and Co means the average cell number per ml in the control group at the beginning of incubation. The Y(%) value at each concentration and log10 value of each concentration were obtained and the regression curve was constructed according to the following equation from those obtained values. In this case, when all the Y(%) value obtained at each concentration is greater than 55% or lower than 45%, the experiment was repeatedly conducted.
(§3) To construct the regression curve Y=A+BX the values A and B were obtained using the following equation. [formula]
(§4) In the above, the value N is the number of selected points which is greater than 2 and lower than, or identical with, the number of cencentration of the test sample, Xi is log(concentration) i, and Yi is the growth ratio at (concentration)i. The value of ED50 was obtained for those obtained slope and intercept.

A549 cancer cells = assay: Cytotoxic activity against A549 cancer cells (sulforhodamin B method); conditions: Homo sapiens; A549 cells, SRB method, 48 hours; read-out: ED50, cytotoxic activity against A549
Protocol: The cytotoxic activity against A549 cancer cells was determined using a method for measuring sulforhodamin B (SRB), which was developed in the year 1989 by NIC for measuring anticancer activity of the drug in vitro. For the experiment, cells under subculturing were separated from the attached surface with trypsin-CDTA solution and then dispensed into a 24-well flat-bottom microplate (Falcon) so that the number of cells per well is 8×10^4 (A549). The microplate was incubated in a CO2 incubator for 24 hours to attach the dispensed cells to bottom. The medium was removed with aspirator. Then, 100 μl of the solution of the test compounds diluted in a log-dose of 6 kinds of concentration was added to each well containing cells, in a multiple of 3. The microplate was incubated for further 48 hours. In addition, the diluted solution of the test compounds above was filtered through a 0.22 μm filter, before addition to the cells, to keep the experiment under sterilized condition. The cells were incubated with the test compounds for 48 hours and then the medium was removed from each well. 100 μl of 10% trichloroacetic acid (TCA) was added to each well and then the plate was allowed to stand at 4° C. for one hour to fix the cells to the bottom of plate. After fixing the cells, the plate was washed 5 to 6 times with water to completely remove any remaining TCA solution and then dried at room temperature until water is no longer present. To the completely dried plate was added the dying solution of 0.4% SRB dissolved in 1% acetic acid in an amount of 250 μl per well to stain the cells for 30 minutes and then the plate was washed again 5 to 6 times with 1% acetic acid solution to remove the remaining SRB which is not bound to the cells. The stained cell plate was dried again at room temperature. Then, the dying solution was carefully dissolved in a certain amount of 10 mM Tris so that the O.D. value in the control group at 520 nm is 0.8-1.0 Å (optical density), and the optical density at 520nm was determined. The ED50 value was obtained from the determined optical density. To calculate the activity of the drug against cancer cells, the number of cells (Tz) at the beginning of the addition of drug, the number of cells (C) after incubation with the medium in the absence of drug for 48 hours and the number of cells (T) after incubation in the presence of drugs at each concentration for 48 hours were determined.
The anticancer activity of the test compounds was determined form the following equations. Specifically, in the […] the equation (T-Tz)/(C-Tz)×100 was used and in the case of Tz<T the equation (T-Tz)/Tz×100 was used. Then the IC50 value wich is the concentration of drug which inhibits the growth of cancer cells by 50% was calcualted from the above calculated values using a data regressive function of LOTUS programme and the cytotoxic activities of the test compounds were compared with each other.

K-562 cells = assay: Cytotoxic activity against K-562 cells; conditions: Homo sapiens; K562 cells, 48 hours, 37° C.; read-out: ED50, cytotoxic activity against K562
Protocol: As in the test for the cytotoxic activity against L1210 cells, the test samples were dissoved in ethanol or dimethylsulfoxide in a certain concentration. 0.1 ml of the sample solution was mixed with 0.9 ml of a fresh medium to prepare the dilutions. To each two test tubes having a screw cap were added 100, 50, 25 μl, respectively, of the sample dilutions by means of a micropipet. To each test tube for the test group and the control group (2√n: n=number of the samples) was added 5 ml of the dilutions of HL-60 cells and K-562 cells which were cultured and activated before 24 hours from the beginning of experiment and then diluted in a concentration of 1×10^5 cells/mi. All test tubes were cultured for 48 hours in a CO2 incubator at 37° C. and then the number of cells was counted using a haemacytometer.
as §1, §2, §3, §4

**Q.** `CCCCCCCCCCCCC(OC(=O)CCC)C1=CC(=O)c2c(O)ccc(O)c2C1=O` (stereo not drawn) [2-(1-butanoyloxytridecyl)-5,8-dihydroxy-1,4-naphthoquinone] was tested. Which IC50 (L1210 cells) did it give?
**A.** 0.6 µg/mL (≈ 1.31 µM)

**Q.** And the IC50 (A549 cancer cells)?
**A.** > 20 µg/mL

**Q.** And the IC50 (K-562 cells)?
**A.** 2.7 µg/mL (≈ 5.89 µM)

**Q.** Which results are given for `CCCCCCCCCCCCOC(CCC(C)C)C1=CC(=O)c2c(O)ccc(O)c2C1=O` (stereo not drawn) [2-(1-dodecyloxy-4-methylpentyl)-5,8-dihydroxy-1,4-naphthoquinone]?
**A.** IC50 (L1210 cells): > 20 µg/mL; IC50 (A549 cancer cells): > 20 µg/mL; IC50 (K-562 cells): > 20 µg/mL

**Q.** `CCCCCCCCCCCCOC(CCC(C)C)C1=CC(=O)c2c(OC)ccc(OC)c2C1=O` (stereo not drawn) [2-(1-dodecyloxy-4-methylpentyl)-5,8-dimethoxy-1,4-naphthoquinone] was tested. Which IC50 (L1210 cells) did it give?
**A.** 6.3 µg/mL (≈ 12.9 µM)

**Q.** And the IC50 (A549 cancer cells)?
**A.** 4.8 µg/mL (≈ 9.86 µM)

**Q.** What about the IC50 (K-562 cells) of the same molecule?
**A.** 3.7 µg/mL (≈ 7.6 µM)

**Q.** How did the IC50 (L1210 cells) turn out when `CCOC(CCC(C)C)C1=CC(=O)c2c(OC)ccc(OC)c2C1=O` (stereo not drawn) [2-(1-ethoxy-4-methylpentyl)-5,8-dimethoxy-1,4-naphthoquinone] was run?
**A.** 0.01 µg/mL (≈ 0.0289 µM)

**Q.** And the IC50 (A549 cancer cells)?
**A.** 3 µg/mL (≈ 8.66 µM)

**Q.** What about the IC50 (K-562 cells) of the same molecule?
**A.** 1.5 µg/mL (≈ 4.33 µM)

**Q.** What does the source list for `CCCCCCCOC(CCC(C)C)C1=CC(=O)c2c(O)ccc(O)c2C1=O` (stereo not drawn) [2-(1-heptyloxy-4-methylpentyl)-5,8-dihydroxy-1,4-naphthoquinone]?
**A.** IC50 (L1210 cells): 0.8 µg/mL (≈ 2.06 µM); IC50 (A549 cancer cells): 2.4 µg/mL (≈ 6.18 µM); IC50 (K-562 cells): 0.2 µg/mL (≈ 0.515 µM)

**Q.** Which IC50 (L1210 cells) does the source give for `CCCCCCCOC(CCC(C)C)C1=CC(=O)c2c(OC)ccc(OC)c2C1=O` (stereo not drawn) [2-(1-heptyloxy-4-methylpentyl)-5,8-dimethoxy-1,4-naphthoquinone] here?
**A.** 3.1 µg/mL (≈ 7.44 µM)

**Q.** And the IC50 (A549 cancer cells)?
**A.** 4.7 µg/mL (≈ 11.3 µM)

**Q.** And the IC50 (K-562 cells)?
**A.** 6.4 µg/mL (≈ 15.4 µM)

**Q.** `CCCCCCCCCC(OC(=O)CCCCC)C1=CC(=O)c2c(O)ccc(O)c2C1=O` (stereo not drawn) [2-(1-hexanoyloxydecyl)-5,8-dihydroxy-1,4-naphthoquinone] was tested. Which IC50 (L1210 cells) did it give?
**A.** 0.5 µg/mL (≈ 1.12 µM)

**Q.** And the IC50 (A549 cancer cells)?
**A.** 13 µg/mL (≈ 29.2 µM)

**Q.** What about the IC50 (K-562 cells) of the same molecule?
**A.** 1.1 µg/mL (≈ 2.47 µM)

**Q.** Which results are given for `CCCCCCCCCCCCC(OC(=O)CCCCC)C1=CC(=O)c2c(O)ccc(O)c2C1=O` (stereo not drawn) [2-(1-hexanoyloxytridecyl)-5,8-dihydroxy-1,4-naphthoquinone]?
**A.** IC50 (L1210 cells): 1.5 µg/mL (≈ 3.08 µM); IC50 (A549 cancer cells): > 20 µg/mL; IC50 (K-562 cells): > 20 µg/mL

**Q.** `CCCCCCCCCC(O)C1=CC(=O)c2c(O)ccc(O)c2C1=O` (stereo not drawn) [2-(1-hydroxydecyl)-5,8-dihydroxy-1,4-naphthoquinone] was tested. Which IC50 (L1210 cells) did it give?
**A.** 0.1 µg/mL (≈ 0.289 µM)

**Q.** And the IC50 (A549 cancer cells)?
**A.** 0.5 µg/mL (≈ 1.44 µM)

**Q.** What about the IC50 (K-562 cells) of the same molecule?
**A.** 0.3 µg/mL (≈ 0.866 µM)

**Q.** Which IC50 (L1210 cells) does the source give for `CCCCCCCCCC(O)C1=CC(=O)c2c(OC)ccc(OC)c2C1=O` (stereo not drawn) [2-(1-hydroxydecyl)-5,8-dimethoxy-1,4-naphthoquinone] here?
**A.** 1.4 µg/mL (≈ 3.74 µM)

**Q.** And the IC50 (A549 cancer cells)?
**A.** 9.2 µg/mL (≈ 24.6 µM)

**Q.** And the IC50 (K-562 cells)?
**A.** 1.6 µg/mL (≈ 4.27 µM)
